This is an account of results in patent publication US20250003952A1, “SENOLYTIC DRUG SCREENING METHOD AND SENOLYTIC DRUG” (KYOTO UNIVERSITY, priority 2021, published 2025).

One data set has as its system mice models. Particulars: Chang et al., 2016, Childs et al.; cited from earlier work.
For a further data set, the system named is PGAM-Chk1 kinase binding. Particulars: cancer cells; Mikawa et al., 2020; cited from earlier work.
Data set [1] deals with Chk1 kinase. Kind of data set: S280 phosphorylation of Chk1 kinase by Western blot in H1299 cells. The format is cell-based. As to conditions: 10 μM for 48 hours. The protocol:
When each inhibitor (U126 and BI-D1870) was administered to cancer cells, PGAM-Chk1 kinase binding was inhibited, and glycolytic metabolism decreased (Mikawa et al., 2020). RSK kinase was already known to directly control the phosphorylation of the S280 residue of Chk1 kinase (Li et al., 2012, Mol Biol Cell 23, 1582-1592). […] Specifically, cancer cell line H1299 cells were treated with the MEK kinase inhibitor (U126) at a concentration of 10 μM for 48 hours. The treated cells were collected, and proteins were extracted and then Western blotted. It was confirmed that the S280 phosphorylation of Chk1 kinase was suppressed although the protein level of Chk1 kinase was not changed. In addition, the present inventors prepared S280A mutants of Chk1 kinase. […] Specifically, PGAM and Chk1 kinase genes tagged with Nano-Bit tags were introduced into IMR90 cells to prepare a cell line capable of stable expression. At this time, three types of Chk1, i.e., wild-type Chk1 and S280A mutant Chk1 or S280D mutant Chk1, were each introduced into the cells. An oncogenic mutated Ras gene was introduced into these cells by retroviral infection to acquire stress senescent cells. The obtained senescent cells were used to measure intracellular luciferase luminescence signals by Nano-Bit for each.
A general note: In western blotting, separated proteins are transferred to a membrane and probed.

The subject of another data set is IMR90 cells. The data set is described as follows: Senolysis / cell death of young and Ras-induced senescent IMR90 cells. The class given is cell-based, human. The source says: Ras gene with oncogenic mutation was introduced into young cells (within 1 month of continuous culture) of IMR90 cells by retroviral infection to acquire senescent cells. […] The control received only DMSO treatment. Representative images of cells observed under a microscope are shown (FIG. 11).
An oncogenic mutated Ras gene was introduced into young cells (within 1 month of continuous culture) of IMR90 cells by retroviral infection to acquire stress-induced senescent cells. The young cells and the senescent cells were both treated with different concentrations of the RSK kinase inhibitor BI-D1870 for 96 hours to evaluate cell death.
An oncogenic mutated Ras gene was introduced into young cells (within 1 month of continuous culture) of IMR90 cells by retroviral infection to acquire stress-induced senescent cells. The young cells and the senescent cells of IMR90 were both transfected with an RSK1 siRNA (two types of siRNA #1 (SEQ ID NO: 7) or #2 (SEQ ID NO: 8) having different target sequences) or a control to knock down RSK1. Representative images of cells observed under a microscope are shown (upper diagram in FIG. 20).
An oncogenic Ras was introduced into young cells (within 1 month of continuous culture) of IMR90 cells to induce senescent cells (OIS). The young cells and the senescent cells of IMR90 were transfected with two HIF-2α-specific siRNAs (SEQ ID NO: 9 and SEQ ID NO: 10) having different target sequences to knock down HIF-2α.
An oncogenic Ras was introduced into young cells (within 1 month of continuous culture) of IMR90 cells to induce senescent cells (OIS). The young cells and the senescent cells of IMR90 were transfected with a BIM-specific siRNA to knock down BIM.
An oncogenic Ras was introduced into young cells (within 1 month of continuous culture) of IMR90 cells to induce senescent cells (OIS). In the young cells and the senescent cells of IMR90, HIF-2α alone or both HIF-2α and BIM were knocked down by using their respective specific siRNAs (SEQ ID NO: 9, SEQ ID NO: 10), and cell death was confirmed (FIG. 28).
The latter information consists of 12,655 ChIP datasets from 903 antigens (transcription factors and epigenetic regulators).

In data set [2] the target is T1, PGAM-Chk1 binding (Homo sapiens, UniProt O14757+P18669).
T1 construct: endogenous in cells; host or cells: IMR90 human primary fibroblasts made senescent by retroviral oncogenic Ras
T1 sequence (P18669 2-254 limits assumed): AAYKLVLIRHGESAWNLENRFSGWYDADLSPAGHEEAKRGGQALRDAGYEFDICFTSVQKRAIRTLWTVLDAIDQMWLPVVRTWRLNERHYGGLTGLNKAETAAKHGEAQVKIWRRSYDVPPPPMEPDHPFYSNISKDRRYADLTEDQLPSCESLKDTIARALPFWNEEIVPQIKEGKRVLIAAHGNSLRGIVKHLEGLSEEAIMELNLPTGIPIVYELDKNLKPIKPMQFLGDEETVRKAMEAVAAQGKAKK
T1 sequence (O14757 1-476): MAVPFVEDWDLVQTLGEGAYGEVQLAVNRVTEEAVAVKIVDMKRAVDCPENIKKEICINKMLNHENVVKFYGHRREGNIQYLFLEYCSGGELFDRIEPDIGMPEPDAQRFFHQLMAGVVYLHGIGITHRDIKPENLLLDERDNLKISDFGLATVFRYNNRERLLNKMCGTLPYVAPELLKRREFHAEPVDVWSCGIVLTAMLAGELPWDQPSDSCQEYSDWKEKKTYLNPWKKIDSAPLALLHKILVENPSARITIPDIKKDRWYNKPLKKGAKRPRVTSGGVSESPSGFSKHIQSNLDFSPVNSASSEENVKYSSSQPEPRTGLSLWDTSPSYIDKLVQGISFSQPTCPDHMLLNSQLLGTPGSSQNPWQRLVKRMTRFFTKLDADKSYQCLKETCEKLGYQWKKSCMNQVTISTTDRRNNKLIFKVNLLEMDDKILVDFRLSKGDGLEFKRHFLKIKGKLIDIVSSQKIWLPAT
Kind of data set: PGAM-Chk1 binding by anti-Chk1 immunoprecipitation and anti-PGAM Western blotting in Ras-induced senescent IMR90 cells. The class given is cell-based. The protocol:
Human primary fibroblasts, IMR90 cells, were obtained from the JCRB Cell Bank. An oncogenic Ras mutation was retrovirally introduced into young cells (within 1 month of continuous culture) of the IMR90 cells to induce cellular senescence. […] After that, these cells were treated with MG132 for 6 hours, and cell lysates were prepared. The obtained cell lysates were immunoprecipitated with an anti-Chk1 antibody. The resulting immunoprecipitate was used for Western blotting with an anti-PGAM antibody to evaluate PGAM-Chk1 binding.
Next, in the same manner as above, IMR90 cells were used to prepare stress-induced senescent cells by introducing an oncogenic mutated Ras gene. The senescent cells were transfected with an RSK1 siRNA (SEQ ID NO: 7) or a control to knock down RSK1. The resulting cells were collected, and proteins were extracted. The resulting protein extract was immunoprecipitated with an anti-Chk1 antibody. The resulting immunoprecipitate was used for Western blotting with an anti-PGAM antibody to evaluate PGAM-Chk1 binding.

Data set [3] addresses T2, PGAM-Chk1 binding (Homo sapiens, UniProt O14757+P18669).
T2 construct: expressed in transfected cells
The data set is described as follows: Nano-Bit PGAM-Chk1 binding in cancer cell line H1299. The format is cell-based. As to conditions: H1299 cells; 40 μM for 12, 24, and 48 hours. An excerpt: PGAM and Chk1 kinase genes tagged with Nano-Bit tags were introduced into the cancer cell line H1299 to prepare a cell line capable of stable expression. […] The treated cells were used to measure intracellular luciferase luminescence signals by Nano-Bit for each.
T2 sequence (P18669 whole entry, one chain of several): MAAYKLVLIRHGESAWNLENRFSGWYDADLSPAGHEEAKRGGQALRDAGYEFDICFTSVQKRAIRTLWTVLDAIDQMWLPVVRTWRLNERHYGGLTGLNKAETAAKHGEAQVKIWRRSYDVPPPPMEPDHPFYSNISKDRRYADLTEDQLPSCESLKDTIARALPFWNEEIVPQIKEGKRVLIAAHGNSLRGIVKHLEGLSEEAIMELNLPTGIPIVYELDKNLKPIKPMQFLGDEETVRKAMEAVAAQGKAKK

A further data set deals with glycolytic metabolism. Kind of data set: Glycolytic metabolism (glucose consumption, lactate production) in etoposide-induced senescent IMR90 cells. The class given is cell-based, human. As to conditions: 20 μM or 40 μM for 48 hours. The protocol: Next, young cells (within 1 month of continuous culture) of the IMR90 cells were treated with 100 μM etoposide for 48 hours to acquire senescent cells. […] After the nutlin treatment, the medium was collected, and glucose consumption was evaluated and lactate production was measured. The lactate level is calculated as a value (μmol/mg/h) obtained by measuring the amount of lactate secreted into the medium per hour (μmol/h) and correcting the same by the total cell protein (mg) and is expressed as a value relative to the actual value on day 0. The glucose consumption is calculated as a value (μmol/mg/h) obtained by measuring the amount of glucose decreased from the medium per hour (μmol/h) and correcting the same by the total cell protein (mg) and is expressed as a value relative to the actual value on day 0. Glucose and lactate were measured by using a Glucose assay kit (BioVision) (upper diagram in FIG. 8) and a Lactate assay kit (BioVision) (lower diagram in FIG. 8), respectively.

The test system of the next data set is p53. Kind of data set: p53 activation (Western blot of p53 and p21) in young IMR90 cells. The class given is cell-based, human. As to conditions: 20 μM for 48 hours. An excerpt: After the treatment, proteins were extracted from the cells to carry out Western blotted.
Another data set concerns BIM gene. The data set is described as follows: BIM gene expression in Ras-induced senescent IMR90 cells. The format is cell-based, human. Particulars: senescent (OIS) IMR90 cells; HIF-2α knockdown by siRNA. The protocol:
An oncogenic Ras was introduced into young cells (within 1 month of continuous culture) of IMR90 cells to induce senescent cells (OIS).
An oncogenic Ras was introduced into young cells (within 1 month of continuous culture) of IMR90 cells to induce senescent cells (OIS). The senescent cells were transfected with an HIF-2α-specific siRNA (SEQ ID NO: 9) to knock down HIF-2α. After that, the expression of the BIM gene, which is an apoptosis-inducing gene, was analyzed (FIG. 26).

Data set [4] relates to Chk1 kinase. The data set is described as follows: S280 phosphorylation of Chk1 kinase after RSK1 knockdown in senescent IMR90 cells. The class given is cell-based, human. Particulars: Ras-induced senescent IMR90 cells; RSK1 knockdown by siRNA.

In the case of `CC1(C)CCC(c2ccc(Cl)cc2)=C(CN2CCN(c3ccc(C(=O)NS(=O)(=O)c4ccc(N[C@H](CCN5CCOCC5)CSc5ccccc5)c(S(=O)(=O)C(F)(F)F)c4)cc3)CC2)C1` [ABT263], the “aging-relevant dysfunctions and artherosclerosis” value in the data set with mice models was “alleviated”.
`N#CC(=C(/N)Sc1ccccc1N)/C(C#N)=C(/N)Sc1ccccc1N` [U126]: in the data set with PGAM-Chk1 kinase binding, the PGAM-Chk1 kinase binding entry was “inhibited” and the glycolytic metabolism result is “decreased”. Besides, in the data set on Chk1 kinase [1], the “S280 phosphorylation of Chk1 kinase” value was “suppressed” and the “protein level of Chk1 kinase” value is given as “not changed”.
Consider `COc1ccc(C2=N[C@@H](c3ccc(Cl)cc3)[C@@H](c3ccc(Cl)cc3)N2C(=O)N2CCNC(=O)C2)c(OC(C)C)c1` [nutlin 3a], for which, in the data set on IMR90 cells (young and Ras-induced senescent IMR90 cells, 40 μM for 72 hours), the “cell death observed under a microscope” value is “cell death and cell number decrease were observed in both the young cells and the senescent cells”. In addition, at PGAM-Chk1 binding [2] (20 μM or 40 μM for 48 hours, then MG132 6 hours), the “PGAM-Chk1 binding (interaction)” value is recorded as “inhibit PGAM-Chk1 interaction to the same extent”. Besides, the “luciferase luminescence signal by Nano-Bit (PGAM-Chk1 binding)” value on PGAM-Chk1 binding [3] is listed as “treatment time-dependent decrease”. In the data set on glycolytic metabolism, the glucose consumption entry is “suppressed in a dose-dependent manner” and the lactate production result is listed as “suppressed in a dose-dependent manner”. In the data set with p53, the “protein level of p21” value is on record as “markedly increased” and the “protein level of p53” value is on record as “markedly increased”.
“HIF-2α-specific siRNA (SEQ ID NO: 9): HIF-2α-specific siRNA, SEQ ID NO: 9 (CACCUACUGUGAUGACAGA; listed as RNA, chemistry not given here)”: in the data set on IMR90 cells (young and Ras-induced senescent (OIS) IMR90 cells, siRNA transfection), the “cell death after HIF-2α knockdown” value is given as “selective cell death (senolysis)”. In the data set with BIM gene, the “expression of the apoptosis-inducing gene BIM” value is “increased”.
Turning to “RSK1 siRNA #1: RSK1 siRNA including the sequence of SEQ ID NO: 7 (CACUGAUUCUGAAGGCGAA; listed as RNA, chemistry not given here)”, the “senolysis phenomenon with knockdown of RSK1” value with IMR90 cells (young and Ras-induced senescent IMR90 cells, siRNA transfection) is listed as “young cells are normal, but senescent cells selectively die”. For the same compound, in the data set on Chk1 kinase [4], the “S280 phosphorylation of Chk1 kinase” value was “decreased”. In addition, the PGAM-Chk1 binding entry with PGAM-Chk1 binding [2] (RSK1 knockdown by siRNA) is reported as “inhibition of PGAM-Chk1”.
